Test results as given in patent US10093660B2, “Sulfoximine substituted quinazolines for pharmaceutical compositions” (EVOTEC INTERNATIONAL GMBH, priority 2013, dated 2018).

Legend:
[1] = tested on: MNK2 (MNK2a or MNK2b) or MNK1; conditions: cell culture cells transfected with MNK2 (MNK2a or MNK2b) or MNK1; cited from earlier work
MNK2a = MNK2a (Homo sapiens (Human), UniProt Q9HBH9); assay: MNK2a in vitro kinase assay (Assay 2), ADP-Glo; assay type: biochemical; conditions: assay 2; read-out: MNK2 IC50
Chain of MNK2a (Q9HBH9 whole entry): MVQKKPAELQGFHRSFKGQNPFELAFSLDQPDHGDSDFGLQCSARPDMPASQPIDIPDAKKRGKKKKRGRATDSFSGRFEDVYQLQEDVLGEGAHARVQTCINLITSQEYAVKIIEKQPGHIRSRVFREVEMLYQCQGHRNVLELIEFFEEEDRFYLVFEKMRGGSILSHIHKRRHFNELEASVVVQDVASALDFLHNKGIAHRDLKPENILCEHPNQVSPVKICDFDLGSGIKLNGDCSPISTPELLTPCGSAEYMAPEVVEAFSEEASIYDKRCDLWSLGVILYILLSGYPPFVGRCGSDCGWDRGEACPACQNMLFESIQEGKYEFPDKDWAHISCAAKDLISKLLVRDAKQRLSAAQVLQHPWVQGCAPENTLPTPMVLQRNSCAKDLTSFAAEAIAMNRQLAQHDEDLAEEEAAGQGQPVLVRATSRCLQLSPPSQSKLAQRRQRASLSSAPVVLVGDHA
Description: B. MNK2a In Vitro Kinase Assay (Assay 2)

MNK1a = MNK1a (Homo sapiens (Human), UniProt Q9BUB5); assay: MNK1 in vitro kinase assay (Assay 3), Z'-LYTE; assay type: biochemical; conditions: for inhibition at 1 µM: compound concentration of 1 μM, read-out: MNK1 % INH
Chain of MNK1a (Q9BUB5 other isoform, or with tags, fused parts or gaps): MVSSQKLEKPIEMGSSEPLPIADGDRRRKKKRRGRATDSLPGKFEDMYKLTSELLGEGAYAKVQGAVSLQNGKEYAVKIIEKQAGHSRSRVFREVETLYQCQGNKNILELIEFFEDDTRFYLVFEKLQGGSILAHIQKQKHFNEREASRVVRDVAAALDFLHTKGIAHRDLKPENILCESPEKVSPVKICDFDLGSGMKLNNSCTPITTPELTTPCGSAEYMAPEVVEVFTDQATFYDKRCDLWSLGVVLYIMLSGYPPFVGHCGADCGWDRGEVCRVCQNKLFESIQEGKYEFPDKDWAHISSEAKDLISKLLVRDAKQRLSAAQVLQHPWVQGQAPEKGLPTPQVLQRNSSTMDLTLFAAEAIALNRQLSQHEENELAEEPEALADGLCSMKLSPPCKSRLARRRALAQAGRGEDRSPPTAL

Row | SMILES | reduction of phosphorylated eIF4E [1] | IC50 (MNK2a) | inhibition at 1 µM (MNK1a) | IC50 (MNK1a)
1 | Nc1ncnc2n[nH]c(Nc3ccc(F)cc3)c12 [CGP57380] | strong reduction of phosphorylated eIF4E | – | – | –
2 | CO[C@@H]1CN(C)C[C@H]1Oc1ncccc1Nc1ncnc2cc(N=S3(=O)CCCC3)cc(C)c12 [Example 11.3] | – | 12 nM | 87% | –
3 | Cc1cc(N=S2(=O)CCCC2)cc2ncnc(Nc3ccc(F)cc3O[C@@H]3COC[C@@H]3OCc3ccccc3)c12 [Example 13.3] | – | 15 nM | 79% | –
4 | CC1CCS(=O)(=Nc2cc(F)c3c(Nc4ccc(F)cc4O[C@H]4COC[C@@H]4O)ncnc3c2)C1 (some centres unmarked) [Example 2.80] | – | 4 nM | 96% | –
5 | CC(=O)N1C[C@@H](O)[C@H](Oc2cc(F)ccc2Nc2ncnc3cc(N=S(C)(C)=O)cc(C)c23)C1 [Example 2.102] | – | 31 nM | 74% | –
6 | COc1cc(N=S(C)(=O)c2cccnc2)cc2ncnc(Nc3ccc(F)cc3O[C@H]3COC[C@H]3O)c12 (mixture of isomers) [Example 9.12] | – | 27 nM | 86% | –
7 | Cc1cc(N=S(C)(C)=O)cc2ncnc(Nc3cccnc3O[C@@H]3CN(S(C)(=O)=O)C[C@H]3O)c12 [Example 2.20] | – | 27 nM | 77% | –
8 | O=S1(=Nc2cc(Cl)c3c(Nc4ccc(F)cc4O[C@@H]4COC[C@H]4O)ncnc3c2)CCC1 [Example 1.22] | – | 1 nM | 92% | –
9 | O=S1(=Nc2cc(Cl)c3c(Nc4ccc(F)cc4O[C@@H]4COC[C@H]4O)ncnc3c2)CCCC1 [Example 1.25] | – | 2 nM | 97% | –
10 | COc1cc(N=S2(=O)CCCC2)cc2ncnc(Nc3ccc(F)cc3O[C@H]3COC[C@H]3O)c12 (racemic) [Example 9.13] | – | 6 nM | 99% | –
11 | COc1cc(N=S2(=O)CCC(C)C2)cc2ncnc(Nc3ccc(F)cc3O[C@H]3COC[C@@H]3O)c12 (some centres unmarked) [Example 9.24] | – | 4 nM | 97% | –
12 | CC[S@@](C)(=O)=Nc1cc(C)c2c(Nc3ccc(F)cc3O[C@H]3COC[C@@H]3O)ncnc2c1 (single isomer, unassigned) [Example 14.12] | – | 15 nM | 86% | –
13 | CO[C@@H]1CN(CC(F)F)C[C@H]1Oc1ncccc1Nc1ncnc2cc(N=S(C)(C)=O)cc(C)c12 [Example 5.2] | – | 72 nM | 56% | –
14 | CO[C@@H]1CCC(Oc2cc(F)ccc2Nc2ncnc3cc(N=S4(=O)CCC4)cc(C)c23)CO1 (mixture of isomers) [Example 2.56] | – | 2 nM | 95% | –
15 | Cc1cc(N=S2(=O)CCCC2)cc2ncnc(Nc3ccc(F)cc3O[C@@H]3CN(S(C)(=O)=O)C[C@H]3O)c12 [Example 2.12] | – | 3 nM | – | 94 nM
16 | CC(=O)N1C[C@@H](O)[C@H](Oc2cc(F)ccc2Nc2ncnc3cc(N=S4(=O)CCCC4)cc(C)c23)C1 [Example 2.13] | – | 16 nM | 90% | –
17 | Cc1cc(N=S(C)(C)=O)cc2ncnc(Nc3cccnc3O[C@@H]3COC[C@@H]3O)c12 (racemic) [Example 2.4] | – | 17 nM | 93% | –
18 | CO[C@@H]1C=C[C@@H](Oc2cc(F)ccc2Nc2ncnc3cc(N=S(C)(C)=O)cc(C)c23)CO1 (racemic) [Example 13.1] | – | 6 nM | 96% | –
19 | CO[C@@H]1CN(CCF)C[C@H]1Oc1ncccc1Nc1ncnc2cc(N=S(C)(C)=O)cc(C)c12 [Example 5.3] | – | 109 nM | 31% | –
20 | CO[C@@H]1CN(C(=O)OCc2ccccc2)C[C@H]1Oc1cc(F)ccc1Nc1ncnc2cc(N=S(C)(C)=O)cc(C)c12 [Example 2.14] | – | 108 nM | 19% | –
21 | O=S1(=Nc2cc(Cl)c3c(Nc4ccc(F)cc4O[C@H]4COC[C@H]4O)ncnc3c2)CCCC1 (racemic) [Example 1.5] | – | 2 nM | 88% | –
22 | COc1cc(N=S(C)(=O)c2cccnc2)cc2ncnc(Nc3ccc(F)cc3O[C@H]3COC[C@@H]3O)c12 (some centres unmarked) [Example 9.14] | – | 13 nM | 84% | –
23 | Cc1cc(N=S(C)(C)=O)cc2ncnc(Nc3ccc(F)cc3O[C@H]3CNC[C@@H]3O)c12 [Example 3.7] | – | 38 nM | 84% | –
24 | Cc1cc(N=S2(=O)CCCC2)cc2ncnc(Nc3ccc(F)cc3O[C@H]3CN(S(C)(=O)=O)C[C@@H]3O)c12 [Example 2.60] | – | 3 nM | – | 37 nM
25 | CS(C)(=O)=Nc1cc(F)c2c(Nc3ccc(F)cc3O[C@H]3COC[C@H]3O)ncnc2c1 (racemic) [Example 2.52] | – | 15 nM | 97% | –
26 | Cc1cc(N=S2(=O)CCC2)cc2ncnc(Nc3ccc(Cl)nc3O[C@@H]3COC[C@H]3O)c12 [Example 2.53] | – | 4 nM | 83% | –
27 | Cc1cc(N=S2(=O)CCCC2)cc2ncnc(Nc3ccc(Cl)nc3O[C@@H]3COC[C@H]3O)c12 [Example 2.54] | – | 3 nM | – | 66 nM
